Assay results published in US20240180865A1, “SUSTAINED-RELEASE LIPID PRE-CONCENTRATE” (TIONLAB THERAPEUTICS, priority 2021, published 2024).

Experiment: Peroxide value of liquid crystal former according to type of stabilizer
Assay type: physicochemical
Conditions: 0.3 g stabilizer in 3 g safflower oil, castor oil, cottonseed oil or oleic acid; 60° C. for two weeks
Procedure: 0.3 g of each of tocopherol, ViC_palmitate, mannitol, and ViC_Na was added as stabilizers to 3 g of each of safflower oil, castor oil, cottonseed oil, and oleic acid. After the resulting mixture was heated at 45 to 60° C. after DI treatment, it was cooled to room temperature and left to stand for 3 hours.
The degree of rancidity was evaluated by allowing the mixture to stand under harsh conditions of 60° C. for two weeks to measure the peroxide value of the liquid crystal former.
In order to measure the peroxide value, 0.3 g of the sample was weighed into a 300-ml Erlenmeyer flask, and then 30 ml of a solution of chloroform:glacial acetic acid (2:3) was added thereto. After a temporary dark place was created with silver foil paper, 1 ml of a KI saturated solution was added, and the resulting mixture was shaken vigorously, and then left to stand in the dark place for 5 minutes. Thereafter, 30 ml of distilled water was again added thereto, 1 ml of a 1% starch solution was added thereto, and then the resulting mixture was vigorously mixed. Thereafter, the mixture was titrated with a 0.01 N-Na2S2O3 standard solution while stirring with a magnetic stirrer, and the end point was set to the time when the dark blue color of the starch disappeared. Thereafter, the peroxide value of the sample was determined using the following equation. […]

Compound	peroxide value of the liquid crystal former
CCCCCCCCCCCCCCCC(=O)OC[C@H](O)[C@H]1OC(=O)C(O)=C1O [ViC_palmitate, ascorbic palmitate]	the peroxide values of all the liquid crystal formers used in this test example were low
tocopherol	the peroxide value is higher than when no stabilizer is used
